Legend:
[1] = Exposure to H202 alone, fluorescence; format: biochemical
Procedure: (§1) This example illustrates a comparison of compounds for selective reactivity with superoxide radical. In these experiments, compounds WC-63, WC-77 and WC-81 were exposed to superoxide generated by xanthine oxidase/hypoxanthine in the absence or presence SOD, and were evaluated similarly as compound C1 in Example 10. The concentration of DHE for all experiments was double that of compounds WC-63, WC-77 and WC-81. […] All of the compounds were also exposed to H202 in the presence of horseradish peroxidase (HRP) to generate hydroxyl radical.

[2] = Selective reactivity with superoxide generated by xanthine oxidase/hypoxanthine, absence or presence of SOD; format: biochemical; settings: for specificity for superoxide: FIG. 3, change in fluorescent units from baseline; for oxidation by superoxide / effect of SOD on oxidation by superoxide: xanthine oxidase/hypoxanthine; for oxidation by superoxide: absence of SOD, DHE concentration double that of the WC compounds; for effect of SOD on oxidation by superoxide: presence of SOD; for specificity for superoxide, comparison among compounds: levels of hydroxyl radical very supraphysiological
Procedure: as §1

[3] = Exposure to H202 in the presence of horseradish peroxidase (HRP), fluorescence; format: biochemical; settings: H202 with HRP, supraphysiologic levels
Procedure: as §1

[4] = Tissue uptake of the tracers, fluorescence lifetime imaging; format: in vivo, mice; settings: FIG. 8
From the text: This example illustrates tissue uptake of the tracers. In these experiments, tracer lifetimes in mice were studied by fluorescence imaging of DHE and compounds WC-63, WC-77 and WC-81.

[5] = Plate reader oxidation of compound C1 with H202 and horseradish peroxidase; format: biochemical; settings: H202 1 mM, HRP 0.2 U/ml
Procedure: (§2) This example illustrates oxidation rates of Compound C1 under various conditions. In these experiments, fluorescence intensity of Compound C1 was evaluated in a plate reader assay, and the fluorescence intensity over time of the oxidation rate of compound C1 was evaluated. […] Excitation was done at 480 nm and emission filtering was >590 nm. The following reaction conditions were used: [table]

[6] = Plate reader oxidation rate of compound C1, superoxide production with hypoxanthine and xanthine oxidase (XO system); format: biochemical
Procedure: as §2

[7] = In vivo oxidation in brains of ketamine-pretreated mice, confocal microscopy; settings: for detection of superoxide produced by ketamine treatment (fluorescence of oxidized form in mouse brain): ketamine pretreatment
Procedure: In these experiments, mice were pretreated for several days with subanesthetic doses of ketamine, which produces a large increase in neuronal superoxide generation (Behrens et al, 2007). The mice were injected with 27 mg/kg of compound C1 and sacrificed 16 hours later. Brains were sliced and imaged by confocal microscopy. The images of the brains sliced 16 hours after administration of compound C1 are depicted in FIG. 4. […] The quantitative measures of fluorescence of the oxidized forms of DHE and compound C1 in mouse brain are depicted in FIG. 5. When compound C1 was administered to transgenic mice overexpressing SOD, the increased fluorescence from the ketamine pretreatment was abolished, consistent with the SOD removal of superoxide (FIG. 5).

[8] = Comparative oxidation of C1 and DHE in the presence of oxidizers, single wavelength fluorescence platereader study; format: biochemical; settings: elevations with superoxide but not with peroxide (H202), hydroxyl radical (HO—) or peroxynitrate (ONOO—); FIG. 2
Procedure: This example illustrates comparative oxidation of C1 and DHE. In these experiments, fluorescence of C1 or DHE were determined in the presence of oxidizers. […] In this single wavelength fluorescence platereader study, it should be noted that the ratio of fluorescence increase in a study cannot be compared between DHE and compound C1 since their non-oxidized forms have fluorescence and the light spectra overlap to a variable degree with the oxidized forms.

[9] = Plate reader oxidation of compound C1 with peroxide; format: biochemical; settings: H202 1 mM
Procedure: as §2

[10] = Fluorescence from oxidation of compound WC-81 in mouse brain images; format: in vivo, mice; settings: FIG. 7
Procedure: This example illustrates fluorescence from oxidation of Compound WC-81. In these experiments, compound WC-81 was administered to mice, and images of mouse brains were then obtained (FIG. 7).

[11] = Kinetics of compound WC-81 in brain in vivo, eXplore Optix-MX2 fluorescence scanner; design: species or system mouse
Procedure: In these experiments, an anesthetized mouse was placed in an eXplore Optix™-MX2 scanner, and an initial scan was completed for background fluorescence (T=0). A single intraperitoneal injection of 50 mg/kg of compound WC-81 in 50% DMSO, 50% saline was performed, and the animal was rescanned at 10 minutes. It took approximately 5 minutes to complete the scan. The mouse was removed, allowed to recover, then re-anesthetized and rescanned at 1 hour. A similar recovery and rescan was performed at 2 hours. The mouse was pretreated with subanesthetic doses of ketamine to raise superoxide levels. Cortical (left and right) and cerebellar activity are depicted in FIG. 6.

SMILES | oxidation with H202 [1] | specificity for superoxide [2] | oxidation by superoxide [2] | effect of SOD on oxidation by superoxide [2] | oxidation in the presence of hydroxyl radical [3] | tissue presence of tracer [4] | detection of superoxide produced by ketamine treatment (fluorescence of oxidized form in mouse brain) ([7]; FIG. 5) | specificity for superoxide, comparison among compounds [2] | other results
COc1ccc(C2c3cc(N)ccc3-c3ccc(N)cc3N2C)cc1 (stereo not drawn) [WC-63] | generally no evidence of oxidation | high specificity for superoxide | oxidized by superoxide | fully blocked oxidation | generally no evidence of oxidation | present in the brain and organs in the chest |  |  | 
CN1c2cc(N)ccc2-c2ccc(N)cc2C1c1ccccc1 (stereo not drawn) [C1] |  |  |  |  |  |  | detected a large increase |  | oxidation with H202 with horseradish peroxidase [5]: no oxidation; effect of superoxide dismutase (SOD) on oxidation ([6]; XO system plus SOD 575 U/ml): completely removed; effect of catalase on oxidation ([6]; XO system plus catalase 60 U/ml): did not effect; rate of conversion by oxidation compared with DHE ([6]; data not shown): slightly faster than DHE; oxidation under superoxide production ([6]; hypoxanthine and xanthine oxidase (XO system)): oxidized rapidly; reactivity and selectivity for superoxide (fluorescence intensity over time) ([6]; plate reader, excitation 480 nm, emission >590 nm, FIG. 1): both reactivity and selectivity for superoxide; pattern of brain fluorescence ([7]; ketamine pretreated mice, 27 mg/kg, sacrificed 16 hours later, FIG. 4): consistent with the presence of intracellular oxidized compound C1; increased fluorescence from ketamine pretreatment in transgenic mice overexpressing SOD ([7]; transgenic mice overexpressing SOD, FIG. 5): abolished; selective oxidation (fluorescence) in the presence of oxidizers [8]: selective oxidation similar to DHE; oxidation with peroxide [9]: no oxidation
CCN1c2cc(N)ccc2-c2ccc(N)cc2C1c1ccccc1 (stereo not drawn) [DHE, 2,7-diamino-10-ethyl-9-phenyl-9,10-dihydrophenanthradine, reference compound] |  |  | oxidized by superoxide | fully blocked oxidation |  | present in the brain and organs in the chest | detected a large increase |  | 
CN1c2cc(N)ccc2-c2ccc(N)cc2C1c1ccc(OCCF)cc1 (stereo not drawn) [WC-81] | generally no evidence of oxidation | high specificity for superoxide | oxidized by superoxide | fully blocked oxidation | partial oxidation | present in the brain and organs in the chest |  | highly selective for superoxide | stability of the product, comparison among compounds [2]: most stable and intact product; localization of fluorescence from oxidation in brain [10]: localized to cerebral microvessels and to the extracellular space around certain cortical or hippocampal neurons; brain fluorescence levels at 120 minutes ([11]; 50 mg/kg intraperitoneal, 120 minutes): fall in levels; time by which plateau of brain fluorescence was reached ([11]; 50 mg/kg intraperitoneal, cortical and cerebellar activity): ≤ 60 min; brain penetration ([11]; single intraperitoneal injection 50 mg/kg in 50% DMSO, 50% saline, ketamine pretreated mouse, FIG. 6): penetrated the brain
CN1c2cc(N)ccc2-c2ccc(N)cc2C1c1ccc(OCc2cn(CCF)nn2)cc1 (stereo not drawn) [WC-77] | generally no evidence of oxidation | high specificity for superoxide | oxidized by superoxide | fully blocked oxidation | generally no evidence of oxidation |  |  | most specific compound for superoxide | 
